Data taken from patent publication US9434693B2, “Substituted pyrazoles as N-type calcium channel blockers” (Janssen Pharmaceutica NV, priority 2012, dated 2016).
Counter-ions that a name gives are not always drawn.

Target: N-type calcium channel (α1B (Cav2.2), β3 and α2δ subunits) in stable HEK cell line (Homo sapiens (Human), UniProt Q00975)
Experiment: Functional assay (FDSS calcium mobilization): antagonism of N-type calcium channel
Assay type: cell-based
Settings: for IC50: KCl (50 mM) depolarization, six-point concentration-response; for inhibition at 0.33 µM: HEK293; for inhibition at 0.33 µM / % Inhibition (%) at 0.33 μM: FDSS, 0.33 μM compound
Description: A stable cell line (HEK parent) co-expressing the α1B (Cav2.2), β3 and α2δ subunits of the N-type calcium channel subunits was used. These cells were routinely grown as monolayers in low glucose-containing Dulbecco's Modified Eagle Medium supplemented with 10% FBS, 2 mM L-glutamine, 100 I.U./mL penicillin, 100 μg/mL streptomycin, 400 μg/mL G418 and 200 μg/mL Zeocin (split ratio=1:5). Cells were maintained in 5% CO2 at 37° C. Compounds of Formula (I) were prepared as 10 mM stocks in DMSO from neat compound, if available. Otherwise, the 5 or 10 mM DMSO stock solutions provided in-house were used.
Calcium mobilization responses to KCl depolarization were evaluated by measuring the intensity of calcium-mediated fluorescent signal in the presence of BD Calcium Assay Dye (BD Biosciences, Franklin Lakes, N.J., U.S.A.), utilizing a Functional Drug Screening System (FDSS) by Hamamatsu Corporation (Bridgewater, N.J. U.S.A.).
Twenty-four hr prior to assay, cells were seeded in clear-base poly-D-lysine-coated 384-well plates (BD Biosciences) at a density of 5,000 cells per well in culture medium and grown overnight in 5% CO2 at 37° C. On the day of assay, growth media were removed, and cells were loaded with BD calcium assay dye (BD Biosciences) for 35 min at 37° C. under 5% CO2 and then for 25 min at room temp. Utilizing the FDSS, cells were exposed to representative compounds of Formula (I) at varying concentrations, and intracellular calcium was measured for 5 min prior to the addition of 50 mM KCl for an additional 3 min of measurement.
IC50 values for representative compounds of Formula (I) were determined from six-point concentration-response experiments and represent the concentration of said compound required to inhibit 50% of the maximal response. Maximal fluorescence intensity (FI) achieved upon addition of 50 mM KCl was exported from the FDSS software and further analyzed using GraphPad Prism 3.02 (Graph Pad Software Inc., San Diego, Calif., U.S.A.). Data were normalized to the maximum average counts from quadruplicate wells for each condition in the presence of 50 mM KCl and to the minimum average counts in the presence of buffer. Theoretical curves were generated using nonlinear regression curve-fitting analysis of either sigmoidal concentration-response or sigmoidal concentration-response (variable slope), and the IC50 values with the best-fit curve determined by GraphPad Prism were reported.

N-type calcium channel (α1B (Cav2.2), β3 and α2δ subunits) in stable HEK cell line, sequence (Q00975 whole entry): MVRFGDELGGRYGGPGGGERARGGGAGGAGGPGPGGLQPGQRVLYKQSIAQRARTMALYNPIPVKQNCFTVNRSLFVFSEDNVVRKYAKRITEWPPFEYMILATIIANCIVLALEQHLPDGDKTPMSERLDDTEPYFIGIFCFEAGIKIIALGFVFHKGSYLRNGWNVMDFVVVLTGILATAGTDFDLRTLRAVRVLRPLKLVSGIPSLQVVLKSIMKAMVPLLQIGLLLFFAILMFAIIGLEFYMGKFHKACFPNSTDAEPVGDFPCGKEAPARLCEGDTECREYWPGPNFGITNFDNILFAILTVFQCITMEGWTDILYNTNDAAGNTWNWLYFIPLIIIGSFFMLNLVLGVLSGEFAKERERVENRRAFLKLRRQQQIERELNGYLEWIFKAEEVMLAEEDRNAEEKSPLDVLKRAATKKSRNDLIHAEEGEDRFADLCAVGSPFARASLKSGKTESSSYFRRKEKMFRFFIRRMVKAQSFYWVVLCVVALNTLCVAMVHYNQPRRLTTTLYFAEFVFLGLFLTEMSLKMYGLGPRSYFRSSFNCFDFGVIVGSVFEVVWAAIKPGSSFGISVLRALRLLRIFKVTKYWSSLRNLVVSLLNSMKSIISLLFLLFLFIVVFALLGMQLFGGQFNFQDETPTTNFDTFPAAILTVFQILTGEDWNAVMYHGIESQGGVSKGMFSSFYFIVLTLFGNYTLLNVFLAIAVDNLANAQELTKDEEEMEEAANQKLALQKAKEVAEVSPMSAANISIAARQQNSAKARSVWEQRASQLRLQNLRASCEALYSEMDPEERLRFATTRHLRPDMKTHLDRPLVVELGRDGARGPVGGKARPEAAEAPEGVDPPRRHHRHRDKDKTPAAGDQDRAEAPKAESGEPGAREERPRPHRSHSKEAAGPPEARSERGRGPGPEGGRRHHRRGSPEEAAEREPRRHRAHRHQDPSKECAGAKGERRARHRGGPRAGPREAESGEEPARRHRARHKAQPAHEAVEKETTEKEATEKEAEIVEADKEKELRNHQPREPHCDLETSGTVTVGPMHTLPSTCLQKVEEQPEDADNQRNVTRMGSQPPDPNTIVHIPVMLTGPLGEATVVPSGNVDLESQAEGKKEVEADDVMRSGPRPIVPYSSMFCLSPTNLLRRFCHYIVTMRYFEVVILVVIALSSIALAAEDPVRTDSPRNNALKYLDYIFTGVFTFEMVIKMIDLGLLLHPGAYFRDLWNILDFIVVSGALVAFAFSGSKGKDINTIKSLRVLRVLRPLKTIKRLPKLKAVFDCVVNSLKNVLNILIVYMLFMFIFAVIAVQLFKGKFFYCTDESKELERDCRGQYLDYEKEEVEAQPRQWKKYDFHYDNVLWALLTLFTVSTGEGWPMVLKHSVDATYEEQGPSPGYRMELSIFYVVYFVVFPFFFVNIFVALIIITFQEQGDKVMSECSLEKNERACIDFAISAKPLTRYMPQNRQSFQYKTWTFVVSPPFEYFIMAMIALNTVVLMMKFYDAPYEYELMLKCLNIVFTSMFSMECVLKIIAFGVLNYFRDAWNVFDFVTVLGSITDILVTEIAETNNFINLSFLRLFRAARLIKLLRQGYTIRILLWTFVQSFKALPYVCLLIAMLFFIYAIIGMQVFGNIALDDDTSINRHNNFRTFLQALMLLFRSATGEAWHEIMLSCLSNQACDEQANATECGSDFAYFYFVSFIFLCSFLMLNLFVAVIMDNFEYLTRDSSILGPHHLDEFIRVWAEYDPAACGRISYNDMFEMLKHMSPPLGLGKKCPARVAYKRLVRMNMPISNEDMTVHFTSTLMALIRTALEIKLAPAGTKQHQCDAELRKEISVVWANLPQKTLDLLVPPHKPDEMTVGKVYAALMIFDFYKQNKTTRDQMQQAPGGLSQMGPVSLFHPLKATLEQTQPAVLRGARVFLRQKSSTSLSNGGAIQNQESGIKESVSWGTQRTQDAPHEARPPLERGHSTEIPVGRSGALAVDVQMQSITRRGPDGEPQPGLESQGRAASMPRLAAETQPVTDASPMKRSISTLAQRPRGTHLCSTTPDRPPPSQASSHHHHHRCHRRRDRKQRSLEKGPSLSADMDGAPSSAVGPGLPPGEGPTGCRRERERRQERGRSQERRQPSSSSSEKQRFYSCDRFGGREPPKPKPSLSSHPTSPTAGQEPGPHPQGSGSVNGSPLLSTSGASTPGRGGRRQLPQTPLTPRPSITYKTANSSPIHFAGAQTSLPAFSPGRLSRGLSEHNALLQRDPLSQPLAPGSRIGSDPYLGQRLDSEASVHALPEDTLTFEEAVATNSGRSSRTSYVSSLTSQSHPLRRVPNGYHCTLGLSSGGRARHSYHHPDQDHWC
N-type calcium channel (α1B (Cav2.2), β3 and α2δ subunits) in stable HEK cell line, sequence (P54284 whole entry partner): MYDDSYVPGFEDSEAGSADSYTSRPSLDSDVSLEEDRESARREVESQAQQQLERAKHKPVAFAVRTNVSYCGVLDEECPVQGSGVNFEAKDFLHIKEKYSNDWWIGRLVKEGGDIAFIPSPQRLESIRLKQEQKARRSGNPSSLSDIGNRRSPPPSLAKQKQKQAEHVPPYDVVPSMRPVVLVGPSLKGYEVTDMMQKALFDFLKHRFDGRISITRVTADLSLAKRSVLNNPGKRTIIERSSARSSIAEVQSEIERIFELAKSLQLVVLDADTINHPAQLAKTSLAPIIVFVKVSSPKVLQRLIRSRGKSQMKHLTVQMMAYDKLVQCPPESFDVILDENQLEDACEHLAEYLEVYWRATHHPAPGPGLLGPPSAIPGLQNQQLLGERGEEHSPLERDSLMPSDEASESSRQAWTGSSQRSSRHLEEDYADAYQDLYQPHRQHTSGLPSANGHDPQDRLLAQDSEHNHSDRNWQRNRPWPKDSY
N-type calcium channel (α1B (Cav2.2), β3 and α2δ subunits) in stable HEK cell line, sequence (P54289 25-1103 partner): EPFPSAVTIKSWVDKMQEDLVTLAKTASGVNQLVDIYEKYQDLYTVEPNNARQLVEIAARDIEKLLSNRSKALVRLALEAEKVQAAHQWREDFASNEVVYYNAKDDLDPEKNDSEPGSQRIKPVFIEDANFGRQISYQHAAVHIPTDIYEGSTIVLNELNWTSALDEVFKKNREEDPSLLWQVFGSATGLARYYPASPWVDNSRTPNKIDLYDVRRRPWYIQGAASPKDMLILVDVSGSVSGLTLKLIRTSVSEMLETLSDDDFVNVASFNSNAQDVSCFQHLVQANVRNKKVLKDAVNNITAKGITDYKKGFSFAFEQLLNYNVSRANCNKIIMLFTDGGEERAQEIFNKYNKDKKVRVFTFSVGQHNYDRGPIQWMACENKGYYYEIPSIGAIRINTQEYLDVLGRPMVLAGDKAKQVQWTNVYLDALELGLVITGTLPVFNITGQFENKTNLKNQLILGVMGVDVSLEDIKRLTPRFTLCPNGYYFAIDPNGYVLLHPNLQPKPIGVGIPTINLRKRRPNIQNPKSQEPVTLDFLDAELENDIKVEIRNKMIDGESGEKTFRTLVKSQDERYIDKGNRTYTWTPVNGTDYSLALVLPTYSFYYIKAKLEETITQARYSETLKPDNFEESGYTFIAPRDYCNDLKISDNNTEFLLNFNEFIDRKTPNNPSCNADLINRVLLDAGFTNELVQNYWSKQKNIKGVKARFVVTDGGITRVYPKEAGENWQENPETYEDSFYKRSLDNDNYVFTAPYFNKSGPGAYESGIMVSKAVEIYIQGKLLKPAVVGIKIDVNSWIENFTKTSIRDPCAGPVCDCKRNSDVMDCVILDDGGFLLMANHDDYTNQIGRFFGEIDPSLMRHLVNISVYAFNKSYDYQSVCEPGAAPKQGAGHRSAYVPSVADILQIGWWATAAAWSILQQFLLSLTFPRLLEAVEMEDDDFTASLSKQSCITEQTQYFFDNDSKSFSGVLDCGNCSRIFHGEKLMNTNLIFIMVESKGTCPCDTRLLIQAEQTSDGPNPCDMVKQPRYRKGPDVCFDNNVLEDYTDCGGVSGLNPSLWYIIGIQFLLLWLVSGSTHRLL

| % Inhibition (%) at 0.33 μM [%] | Compound | IC50 [nM] | inhibition at 0.33 µM [%] |
| --- | --- | --- | --- |
| – | COc1ccccc1-n1nc(OC2CCN(C(=O)OC(C)(C)C)CC2)cc1-c1ccc(Cl)cc1 [Compound 1, tert-Butyl 4-{[5-(4-chlorophenyl)-1-(2-methoxyphenyl)-1H-pyrazol-3-yl]oxy}piperidine-1-carboxylate] | 30 | – |
| – | COc1ccccc1-n1nc(OC2CCC(=O)CC2)cc1-c1ccc(Cl)cc1 [Compound 2, 4-{[5-(4-Chlorophenyl)-1-(2-methoxyphenyl)-1H-pyrazol-3-yl]oxy}cyclohexanone] | 28 | – |
| – | COc1ccccc1-n1nc(OC2CCN(C(C)=O)CC2)cc1-c1ccc(Cl)cc1 [Compound 3, 1-Acetyl-4-{[5-(4-chlorophenyl)-1-(2-methoxyphenyl)-1H-pyrazol-3-yl]oxy}piperidine] | 26 | – |
| – | COc1ccccc1-n1nc(OC2CCN(C(=O)N(C)C)CC2)cc1-c1ccc(Cl)cc1 [Compound 4, 4-{[5-(4-Chlorophenyl)-1-(2-methoxyphenyl)-1H-pyrazol-3-yl]oxy}-N,N-dimethylpiperidine-1-carboxamide] | 14 | – |
| – | COc1ccccc1-n1nc(OC2CCN(S(C)(=O)=O)CC2)cc1-c1ccc(Cl)cc1 [Compound 5, 4-{[5-(4-Chlorophenyl)-1-(2-methoxyphenyl)-1H-pyrazol-3-yl]oxy}-1-(methylsulfonyl)piperidine] | 15 | – |
| – | COc1ccccc1-n1nc(OC2CCOCC2)cc1-c1ccc(Cl)cc1 [Compound 6, 5-(4-Chlorophenyl)-1-(2-methoxyphenyl)-3-(tetrahydro-2H-pyran-4-yloxy)-1H-pyrazole] | 15 | 98 |
| – | COc1ccccc1-n1nc(OC2CCSCC2)cc1-c1ccc(Cl)cc1 [Compound 7, 5-(4-Chlorophenyl)-1-(2-methoxyphenyl)-3-(tetrahydro-2H-thiopyran-4-yloxy)-1H-pyrazole] | 28 | – |
| – | COc1ccccc1-n1nc(OC2CCN(CC(F)(F)F)CC2)cc1-c1ccc(Cl)cc1 [Compound 8, 4-{[5-(4-Chlorophenyl)-1-(2-methoxyphenyl)-1H-pyrazol-3-yl]oxy}-1-(2,2,2-trifluoroethyl)piperidine] | 31 | – |
| – | COc1ccccc1-n1nc(OC2CCN(C(=O)C(F)(F)F)CC2)cc1-c1ccc(Cl)cc1 [Compound 9, 4-{[5-(4-Chlorophenyl)-1-(2-methoxyphenyl)-1H-pyrazol-3-yl]oxy}-1-(trifluoroacetyl)piperidine] | 31.4 | – |
| – | COc1ccccc1-n1nc(OC2CCS(=O)(=O)CC2)cc1-c1ccc(Cl)cc1 [Compound 10, 5-(4-Chlorophenyl)-3-[(1,1-dioxidotetrahydro-2H-thiopyran-4-yl)oxy]-1-(2-methoxyphenyl)-1H-pyrazole] | 30 | – |
| – | COc1ccccc1-n1nc(O[C@H]2CC[C@@H](NC(=O)OC(C)(C)C)CC2)cc1-c1ccc(Cl)cc1 [Compound 11, tert-Butyl (cis-4-{[5-(4-chlorophenyl)-1-(2-methoxyphenyl)-1H-pyrazol-3-yl]oxy}cyclohexyl)carbamate] | 62 | – |
| – | COc1ccccc1-n1nc(O[C@H]2CC[C@@H](N)CC2)cc1-c1ccc(Cl)cc1 [Compound 12, cis-4-{[5-(4-Chlorophenyl)-1-(2-methoxyphenyl)-1H-pyrazol-3-yl]oxy}cyclohexanamine trifluoroacetate] | 400 | – |
| – | COc1ccccc1-n1nc(O[C@H]2CC[C@@H](NC(=O)C(F)(F)F)CC2)cc1-c1ccc(Cl)cc1 [Compound 13, N-(cis-4-{[5-(4-Chlorophenyl)-1-(2-methoxyphenyl)-1H-pyrazol-3-yl]oxy}cyclohexyl)-2,2,2-trifluoroacetamide] | 11 | – |
| – | COc1ccccc1-n1nc(OC2CCN(S(=O)(=O)C(F)(F)F)CC2)cc1-c1ccc(Cl)cc1 [Compound 14, 4-{[5-(4-Chlorophenyl)-1-(2-methoxyphenyl)-1H-pyrazol-3-yl]oxy}-1-[(trifluoromethyl)sulfonyl]piperidine] | 24 | – |
| – | COc1ccccc1-n1nc(OC2CCC(F)(F)CC2)cc1-c1ccc(Cl)cc1 [Compound 16, 5-(4-Chlorophenyl)-3-[(4,4-difluorocyclohexyl)oxy]-1-(2-methoxyphenyl)-1H-pyrazole] | 41 | – |
| – | CCc1ccccc1-n1nc(OC2CCC3(CC2)OCCO3)cc1-c1ccc(Cl)cc1 [Compound 17, 5-(4-Chlorophenyl)-3-(1,4-dioxaspiro[4.5]dec-8-yloxy)-1-(2-ethylphenyl)-1H-pyrazole] | 81 | – |
| – | CCc1ccccc1-n1nc(OC2CCN(C(=O)OC(C)(C)C)CC2)cc1-c1ccc(Cl)cc1 [Compound 18, tert-Butyl 4-{[5-(4-chlorophenyl)-1-(2-ethylphenyl)-1H-pyrazol-3-yl]oxy}piperidine-1-carboxylate] | 50 | – |
| – | CCc1ccccc1-n1nc(OC2CCN(S(C)(=O)=O)CC2)cc1-c1ccc(Cl)cc1 [Compound 19, 4-{[5-(4-Chlorophenyl)-1-(2-ethylphenyl)-1H-pyrazol-3-yl]oxy}-1-(methylsulfonyl)piperidine] | 98.5 | – |
| – | COc1ccccc1-n1nc(OC2CN(C(=O)OC(C)(C)C)C2)cc1-c1ccc(Cl)cc1 [Compound 22, tert-Butyl 3-{[5-(4-chlorophenyl)-1-(2-methoxyphenyl)-1H-pyrazol-3-yl]oxy}azetidine-1-carboxylate] | 67 | 90 |
| – | CC(C)(C)Oc1ccccc1-n1nc(OC2CCN(S(C)(=O)=O)CC2)cc1-c1ccc(Cl)cc1 [Compound 24, 4-{[1-(2-tert-Butoxyphenyl)-5-(4-chlorophenyl)-1H-pyrazol-3-yl]oxy}-1-(methylsulfonyl)piperidine] | – | 57 |
| – | COc1ccccc1-n1nc(OC2CN(S(=O)(=O)C(C)C)C2)cc1-c1ccc(Cl)cc1 [Compound 25, 5-(4-Chlorophenyl)-1-(2-methoxyphenyl)-3-({1-[(1-methylethyl)sulfonyl]azetidin-3-yl}oxy)-1H-pyrazole] | 36 | 92 |
| – | COc1ccccc1-n1nc(OC2CN(C(=O)c3ccccc3)C2)cc1-c1ccc(Cl)cc1 [Compound 27, 5-(4-Chlorophenyl)-1-(2-methoxyphenyl)-3-{[1-(phenylcarbonyl)azetidin-3-yl]oxy}-1H-pyrazole] | 85 | 87 |
| – | CC(C)Oc1ccccc1-n1nc(OC2CCN(S(=O)(=O)C(C)C)CC2)cc1-c1ccc(Cl)cc1 [Compound 28, 4-({5-(4-Chlorophenyl)-1-[2-(1-methylethoxy)phenyl]-1H-pyrazol-3-yl}oxy)-1-[(1-methylethyl)sulfonyl]piperidine] | 7 | 96 |
| – | COc1ccc(-c2cc(OC3CC(C)(C)SC(C)(C)C3)nn2-c2ccccc2OC)cc1 [Compound 32, 1-(2-Methoxyphenyl)-5-(4-methoxyphenyl)-3-[(2,2,6,6-tetramethyltetrahydro-2H-thiopyran-4-yl)oxy]-1H-pyrazole] | 6 | 93 |
| – | COc1ccc(-c2cc(OC3CC(C)(C)S(=O)(=O)C(C)(C)C3)nn2-c2ccccc2OC)cc1 [Compound 33, 1-(2-Methoxyphenyl)-5-(4-methoxyphenyl)-3-[(2,2,6,6-tetramethyl-1,1-dioxidotetrahydro-2H-thiopyran-4-yl)oxy]-1H-pyrazole] | 3 | 94 |
| 94 | COc1ccc(-c2cc(O[C@H]3CC(C)(C)[S@+]([O-])C(C)(C)C3)nn2-c2ccccc2OC)cc1 [Compound 34, (1r,4r)-4-((1-(2-methoxyphenyl)-5-(4-methoxyphenyl)-1H-pyrazol-3-yl)oxy)-2,2,6,6-tetramethyltetrahydro-2H-thiopyran 1-oxide] | 4.5 | – |
| 91 | COc1ccc(-c2cc(O[C@H]3CC(C)(C)[S@@+]([O-])C(C)(C)C3)nn2-c2ccccc2OC)cc1 [Compound 35, (1s,4s)-4-((1-(2-methoxyphenyl)-5-(4-methoxyphenyl)-1H-pyrazol-3-yl)oxy)-2,2,6,6-tetramethyltetrahydro-2H-thiopyran 1-oxide] | 7.6 | – |
| – | COc1ccccc1-n1nc(OC2CC(C)(C)SC(C)(C)C2)cc1-c1ccc(Cl)cc1 [Compound 36, 5-(4-Chlorophenyl)-1-(2-methoxyphenyl)-3-[(2,2,6,6-tetramethyltetrahydro-2H-thiopyran-4-yl)oxy]-1H-pyrazole] | 5.9 | 91 |
| – | COc1ccccc1-n1nc(OC2CC(C)(C)S(=O)(=O)C(C)(C)C2)cc1-c1ccc(Cl)cc1 [Compound 37, 5-(4-Chlorophenyl)-1-(2-methoxyphenyl)-3-[(2,2,6,6-tetramethyl-1,1-dioxidotetrahydro-2H-thiopyran-4-yl)oxy]-1H-pyrazole] | 1.9 | 98 |
